These results are taken from patent publication US20090326072A1, “USE OF 2-(2-NITRO-4-TRIFLUOROMETHYLBENZOYL)-l,3- CYCLOHEXANEDIONE IN THE TREATMENT OF PARKINSON'S DISEASE” (priority 2005, published 2009).

Molecules are shown by their SMILES. Entries after “also recorded” stand apart in the source; their conditions may differ. Read-outs that look alike come from different tables or passages of the source.

Test [1] concerns AMPT rat model of Parkinson's disease. Nature of the test: AMPT rat model of Parkinson's disease (catalepsy descent latency and centre rearing counts). It is filed as in vivo. How it is done: AMPT is a competitive inhibitor of tyrosine hydroxylase. Rats dosed with >150 mg/kg AMPT develop parkinsonian-like behavior and locomotor deficits (e.g. catalepsy and reduced rearing activity) within hours owing to the depletion of striatal dopamine concentration as a consequence of the reduced flux through the dopamine synthetic pathway. […] Indian J. Exp. Biol. 41, 1264-1268).
The effect was compared with appropriate vehicle control groups (oral vehicle was 1% carboxymethylcellulose; CMC) and a group that received a 150 mg/kg i.p. dose of L-dopa.
Eight hours after AMPT (or vehicle) administration rats were assessed for catalepsy and centre rearing activity. During the catalepsy test, the front paws of the rat were placed over a horizontal bar suspended 9 cm off the floor. The time taken for the rat to get off the bar (descent latency) was measured with a maximum time of 3 minutes being allowed. Centre rearing counts were determined over a 1 hour monitoring period using an automated activity monitoring system (AM1053). This system used an array of infrared beams to determine the activity and mobility of each animal. Each cage had 48 infrared beams, 24 on each of two levels arranged in an 8×16, 1″ (25.4 mm) pitch grid. The lower grid measured horizontal x, y movement, whilst the upper grid measured rearing movement. The activity detector operated by counting the number of times the beams changed from unbroken to broken and then incrementing the relevant counters.
These groups were compared to a positive control group (6) dosed with 225 mg/kg AMPT i.p.+150 mg/kg L-dopa i.p. 6.5 hour post AMPT dose. L-dopa was administered with a peripheral dopa decarboxylase inhibitor (benserazide), at 100 mg/kg i.p.
In a second and third series of experiments, the efficacy of eight other HPPD inhibitor test compounds were assessed in the AMPT rat model of Parkinson's disease (Tables 1.5 & 1.6). Male Sprague-Dawley rats (300-350 g) were administered a single i.p. dose of 225 mg/kg AMPT and a single oral dose of 10 mg/kg of the HPPD inhibitor test compound was administered either 1 or 16 hours prior to (−16 or −1 hours) AMPT administration. Behavioral assessment (catalepsy and centre rearing counts) was conducted 8 hours post AMPT administration. The effect was compared with a vehicle control group and a group receiving AMPT alone.

For test [2], the target named is T1, 4-hydroxyphenyl pyruvate dioxygenase (HPPD) (Rattus norvegicus, UniProt P32755).
T1 construct: rat liver cytosol (2.7 mg of protein/ml incubate); from tissue; host or cells: rat liver (cytosol, 110,000 g supernatant)
T1 sequence (P32755 whole entry): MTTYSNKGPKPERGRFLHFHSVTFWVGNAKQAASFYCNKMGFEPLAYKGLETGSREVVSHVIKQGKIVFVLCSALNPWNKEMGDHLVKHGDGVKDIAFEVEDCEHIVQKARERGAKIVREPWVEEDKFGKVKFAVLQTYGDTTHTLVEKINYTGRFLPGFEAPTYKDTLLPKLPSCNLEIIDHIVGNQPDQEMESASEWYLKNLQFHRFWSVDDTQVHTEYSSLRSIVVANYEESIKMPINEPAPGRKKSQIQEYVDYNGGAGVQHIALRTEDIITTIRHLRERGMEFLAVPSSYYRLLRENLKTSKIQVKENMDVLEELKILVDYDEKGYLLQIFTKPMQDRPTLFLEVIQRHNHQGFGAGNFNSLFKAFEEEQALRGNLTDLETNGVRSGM
The experiment in a line: Determination of 4-hydroxyphenyl pyruvate dioxygenase (HPPD) enzyme activity in vitro (rate of oxygen consumption, rat liver cytosol). Conditions: for inhibition at 0.1 µM: read-out: % Inhibition at 100 nM; for inhibition at 0.3 µM: read-out: % inhibition at 300 nM. It is filed as biochemical. How it is done: The principle of the assay is that 4-hydroxyphenyl pyruvate dioxygenase (HPPD), an enzyme that participates in the catabolism of tyrosine, catalyses the oxidative decarboxylation and rearrangement of 4-hydroxyphenylpyruvate (HPPA) to homogentisate, with the incorporation of both atoms of molecular oxygen into the product.
Rat liver was homogenised in buffer of the following composition; 0.25 M Sucrose, 5.4 mM EDTA, 20 mM Tris base, pH 7.4, (25% homogenate) using 6 passes of a Potter type homogeniser. The homogenate was then centrifuged at 1,800 g for 10 minutes at 4° C., the pellet was discarded and the supernatant centrifuged at 17,000 g for a further 15 minutes at 4° C. The pellet was then discarded and the supernatant centrifuged at 110,000 g for 80 minutes at 4° C. The supernatant containing the HPPD enzyme from this 110,000 g spin was collected and stored frozen at −70° C. and used in the assays of the test compounds (see below).
Prior to the start of the enzymatic reaction by the addition of HPPA substrate, the enzyme and test compound (inhibitor) were incubated together for 3 minutes.
In cases where the effects of several concentrations of an inhibitor were investigated, an IC50 value (the half-maximal inhibitory concentration of test compound) was determined by plotting the data using a non-linear regression curve-fitting program using a GraphPad Prism™ software package.
Data are expressed as mean values from two experiments except where indicated. Where appropriate the values are expressed as the mean±standard deviation.

The next test relates to plasma tyrosine. Nature of the test: Plasma tyrosine concentration kinetic profile in the rat following a single oral dose. It is filed as in vivo. The following applies: for Plasma Tyrosine Concentration: single oral dose 10 mg/kg; for Plasma tyrosine: single oral dose 2.0 mg/kg. How it is done: The plasma tyrosine concentration kinetic profile in the rat was determined for each of the HPPD inhibitor test compounds by administering a single oral dose to 10-12 week old male Sprague Dawley rats. Compounds 3.20, 3.13 and 3.26 were dosed at 2 mg/kg in 1% carboxymethylcellulose (1% CMC) vehicle, whilst compounds 3.22, 3.12, 3.15, 3.18, 3.23, 3.21, 3.11, 3.01, 3.24 and 3.25 were administered at 10 mg/kg in 1% CMC.
Blood samples to determine plasma tyrosine concentration were obtained at frequent intervals during the first 24 hours post-dose, and at 48 hours post-dose. These samples were either compared with blood samples obtained from control rats which only received an equivalent volume of the vehicle, 1% CMC, or by comparison with control samples obtained from the rats 1 hour prior to dosing with test the compound. Prior to the analysis of the samples for plasma tyrosine concentration, the blood samples were centrifuged at 1800 g for 10 minutes at 4° C. The plasma was collected and then filtered through a centrifugal micro partition device at 1500 g for 30 minutes at 4° C. The filtered plasma was then divided into two aliquots and stored frozen at −70° C. for subsequent gradient reverse phase high performance liquid chromatographic (HPLC) analysis of plasma tyrosine. Aliquots of plasma were analysed by HPLC using a 250×4.6 mm Hichrom S5ODS2 column at 30° C., eluted with a mobile phase of water/acetonitrile/trifluoroacetic acid (950:50:2 v/v/v) at a flow rate of 1 ml/min. Detection was by a diode array detector at 274 nm. Appropriate tyrosine standards were run alongside the samples for calibration purposes.
The plasma tyrosine concentration kinetic profile for the test compounds 3.20, 3.13 and 3.26 are shown at the time points 1, 2, 4, 6, 12, 24 and 48 hours post-dose in Table 1.1. The data shown are the mean±standard deviation (n=4), except for the 6 hour time point where the data were obtained from n=3 rats for the control and 3.26 groups.
The plasma tyrosine concentration kinetic profile for the test compounds 3.22, 3.12, 3.15, 3.18, 3.23, 3.21, 3.11, 3.01, 3.24 and 3.25 are shown at the time points −1 hour (pre-dose control), 1, 3, 6, 12, 24 and 48 hours post-dose, in Tables 1.2 and 1.3. The data shown are the mean±standard deviation (n=3), except for the −1 hour time point with compound 3.23, where n=2 (Table 1.2), and for the 3 and 6 hour time points with compound 3.21, where n=2 (Table 1.3).

Where [3] appears, read: 225 mg/kg AMPT i.p. + 2 mg/kg oral 4 hours post AMPT (+4 hours), 8 h post AMPT.
Where [4] appears, read: 225 mg/kg AMPT i.p. + 2 mg/kg oral 16 hours prior to AMPT (-16 hours), 8 h post AMPT.
Where [5] appears, read: 100 nM test compound, rat liver cytosol, 3 min pre-incubation.
The mark [6] stands for this setting: 300 nM test compound, rat liver cytosol, 3 min pre-incubation.
Where [7] appears, read: 225 mg/kg AMPT i.p. + 150 mg/kg i.p. at +6.5 hours, with benserazide 100 mg/kg i.p., 8 h post AMPT.

For the molecule `O=C1CCCC(O)=C1C(=O)c1ccc(C(F)(F)F)cc1[N+](=O)[O-]` [Compound 2, 2-(2-Nitro-4-Trifluoromethylbenzoyl)-1,3-Cyclohexanedione], the “Mean Catalepsy Descent Latency (s)” value in test [1] (setting [3]) is 27 ± 6.7^++ s; in test [1] (setting [4]) it was 27 ± 5.4^++ s. Further, the “Mean Centre Rearing Counts” value in test [1] (setting [3]) is reported as 298 ± 57^++ counts; in test [1] (setting [4]), 364 ± 74^++ counts; in test [1] (AMPT vehicle (saline i.p., no AMPT) + 2 mg/kg oral at +4 hours, assessed 8 h, 1 hour monitoring), 485 ± 108 counts. In test [1] (AMPT vehicle (saline i.p., no AMPT) + 2 mg/kg oral at +4 hours, assessed 8 h), the “Mean Catalepsy Descent Latency” value was 12 ± 4.3 s. The “reversal of AMPT induced deficits in centre rearing counts (in words)” value in test [1] (single oral dose 2 mg/kg, 2 mg/kg) is listed as “reversed; also recorded: effective in reversing”. For the same molecule, the “reversal of AMPT induced catalepsy (in words)” value in test [1] (single oral dose 2 mg/kg, both dosing regimens, 2 mg/kg) is given as “substantially reversed; also recorded: effective in reversing”.
Turning to `CS(=O)(=O)c1cc(C(F)(F)F)ccc1C(=O)c1cnoc1C1CC1` [Compound 3.01], the inhibition at 0.1 µM in test [2] was found to be 8%. Also, the inhibition at 0.3 µM in test [2] came out at 36%. The “Plasma Tyrosine Concentration” value in the test with plasma tyrosine (1 hour post-dose) is 160 ± 7.4 nmol/mL; in the test on plasma tyrosine (3 hours post-dose) it was 276 ± 12.9 nmol/mL; with plasma tyrosine (6 hours post-dose), 445 ± 32.9 nmol/mL; in the test on plasma tyrosine (12 hours post-dose), 666 ± 16.1 nmol/mL; with plasma tyrosine (24 hours post-dose), 264 ± 23.5 nmol/mL; in the test on plasma tyrosine (48 hours post-dose) it was 110 ± 23.9 nmol/mL. Also, the “Mean Centre Rearing Counts” value in test [1] (Table 1.6: 225 mg/kg AMPT i.p. + 10 mg/kg oral at -1 hour, 8 h post AMPT) is 88 ± 26 counts. Further, the “reversal of AMPT induced deficits in mean centre rearing counts (in words)” value in test [1] (single oral dose 10 mg/kg, -16 or -1 hours) is given as “either partially or completely reversing”. In test [1] (single oral dose 10 mg/kg, -16 or -1 hours, 10 mg/kg), the “reversal of AMPT induced catalepsy (in words)” value is recorded as “substantially reversed; also recorded: effective in reversing”.
With `COCCOCc1nc(C(F)(F)F)ccc1C(=O)C1=C(O)C2CCC(C2)C1=O` (stereo not drawn) [Compound 3.13], in test [2] (rat liver cytosol HPPD), 350 nM corresponded to half-maximal inhibition (IC50). Besides, the inhibition at 0.1 µM in test [2] stood at 14%. Moreover, in test [2], the inhibition at 0.3 µM stood at 41%. Further, the “Plasma tyrosine” value turned out to be 158 ± 6.4 nmol/mL with plasma tyrosine (1 hour post-dose); 209 ± 14.8 nmol/mL in the test on plasma tyrosine (2 hours post-dose); 324 ± 50.2 nmol/mL with plasma tyrosine (4 hours post-dose); 461 ± 52.2 nmol/mL in the test on plasma tyrosine (6 hours post-dose); 801 ± 24.8 nmol/mL in the test with plasma tyrosine (12 hours post-dose); 1281 ± 90.0 nmol/mL in the test on plasma tyrosine (24 hours post-dose). For the same molecule, the “Plasma tyrosine” value with plasma tyrosine (48 hours post-dose) was 115 ± 3.0 nmol/mL.
Turning to `CC1=NN(C)C(=O)C1C(=O)c1ccc(C(F)(F)F)cc1S(C)(=O)=O` (stereo not drawn) [Compound 3.21], the inhibition at 0.1 µM in test [2] was 10%. In addition, the inhibition at 0.3 µM in test [2] came out at 43%. Besides, the “Plasma Tyrosine Concentration” value was determined as 177 ± 17.8 nmol/mL in the test on plasma tyrosine (1 hour post-dose); 300 nmol/mL with plasma tyrosine (3 hours post-dose); 472 nmol/mL in the test on plasma tyrosine (6 hours post-dose); 555 ± 39.0 nmol/mL in the test with plasma tyrosine (12 hours post-dose); 181 ± 23.6 nmol/mL in the test on plasma tyrosine (24 hours post-dose); 100 ± 6.4 nmol/mL in the test on plasma tyrosine (48 hours post-dose).
Regarding `CCOc1c(S(C)(=O)=O)ccc(C(=O)C2C(=O)CC(C)CC2=O)c1Cl` (stereo not drawn) [Compound 3.22], the inhibition at 0.1 µM in test [2] (setting [5]) is 44%. The “Plasma Tyrosine Concentration” value in the test on plasma tyrosine (1 hour post-dose) was 179 ± 18.5 nmol/mL; with plasma tyrosine (3 hours post-dose), 319 ± 43.5 nmol/mL; in the test on plasma tyrosine (6 hours post-dose) it was 507 ± 86.4 nmol/mL; in the test with plasma tyrosine (12 hours post-dose) it was 1011 ± 134.8 nmol/mL; in the test on plasma tyrosine (24 hours post-dose), 2067 ± 36.6 nmol/mL; in the test on plasma tyrosine (48 hours post-dose), 2377 ± 518.5 nmol/mL.
On to `CS(=O)(=O)c1cc(Cl)ccc1C(=O)c1cnoc1C1CC1` [Compound 3.25], for which the inhibition at 0.1 µM in test [2] (setting [5]) was 5%. Besides, in test [2] (setting [6]), the inhibition at 0.3 µM stood at 22%. The “Plasma Tyrosine Concentration” value was determined as 162 ± 17.7 nmol/mL with plasma tyrosine (1 hour post-dose); 267 ± 19.4 nmol/mL in the test with plasma tyrosine (3 hours post-dose); 370 ± 60.8 nmol/mL in the test on plasma tyrosine (6 hours post-dose); 415 ± 152.8 nmol/mL with plasma tyrosine (12 hours post-dose); 136 ± 31.2 nmol/mL with plasma tyrosine (24 hours post-dose); 100 ± 13.5 nmol/mL in the test with plasma tyrosine (48 hours post-dose).
Take `Cc1nc(C(F)F)ccc1C(=O)C1C(=O)C2CCC(C2)C1=O` (stereo not drawn) [Compound 3.26]: in test [2] (setting [5]), the inhibition at 0.1 µM is 20 ± 6.1%. Further, the inhibition at 0.3 µM in test [2] (setting [6]) was 43%. The “Plasma tyrosine” value in the test on plasma tyrosine (1 hour post-dose) is 173 ± 9.6 nmol/mL; with plasma tyrosine (2 hours post-dose), 241 ± 24.0 nmol/mL; in the test on plasma tyrosine (4 hours post-dose), 337 ± 53.5 nmol/mL; with plasma tyrosine (6 hours post-dose) it was 504 ± 72.7 nmol/mL; in the test on plasma tyrosine (12 hours post-dose) it was 897 ± 140.8 nmol/mL; with plasma tyrosine (24 hours post-dose), 1987 ± 50.0 nmol/mL. Moreover, the “Plasma tyrosine” value with plasma tyrosine (48 hours post-dose) stood at 2449 ± 156.8 nmol/mL.
For `N[C@@H](Cc1ccc(O)c(O)c1)C(=O)O` [L-dopa, L-3,4-dihydroxyphenylalanine, reference compound], in test [1] (setting [7]), the “Mean Catalepsy Descent Latency (s)” value is given as 25 ± 6.9^++ s and the “Mean Centre Rearing Counts” value is reported as 258 ± 71^+ counts.
